US11596639B2, “Substituted indole Mcl-1 inhibitors” (Vanderbilt University, priority 2016, dated 2023)
pKi: −log10 of the molar value.

Key:
Mcl-1 = Mcl-1 (Homo sapiens (Human), UniProt Q07820); assay: TR-FRET binding assay, FITC-Bak peptide and MBP-tagged Mcl-1; conditions: read-out: Ki for Inhibition of Mcl-1 by TR-FRET assay
Experimental: Compounds are diluted in DMSO in a 16-point, semilog serial dilution scheme. […] The plate was mixed and incubated for 3 hours at room temperature. […] TR-FRET signal is plotted and IC50 and Ki values are calculated in the same manner as the fluorescence polarization anisotropy based competition assays.

[1] = test system: H929 human cancer cell lines; assay: Cellular viability / proliferation (Cell TiterGlo, 72 h); type: cell-based; conditions: Homo sapiens, NCI-H929, 72 h, read-out: GI50 on cellular proliferation of H929 human cancer cell lines, H929 cells, 72 h, Cell TiterGlo, 10% FBS
How it was run: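 1,000 cells/well, 10% FBS medium; compound added at 24 h, 2-fold dilutions from 50 μM top, DMSO <1% final. 72 h exposure, CellTiterGlo 30 min RT dark, luminescence read. IC50 by 4-parameter fit.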

Sequence of Mcl-1 (Q07820 172-327): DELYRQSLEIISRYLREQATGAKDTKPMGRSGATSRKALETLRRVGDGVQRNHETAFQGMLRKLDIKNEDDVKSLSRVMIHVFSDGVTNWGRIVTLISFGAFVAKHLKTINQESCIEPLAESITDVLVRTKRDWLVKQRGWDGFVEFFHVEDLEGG

| SMILES | pKi (Mcl-1) | GI50 [1] |
| --- | --- | --- |
| Cc1cc(N2C[C@@H](C)n3c(c(CCCOc4cc(C)c(Cl)c(C)c4)c4ccc(Cl)c(-c5c(C)nn(C)c5C)c43)C2=O)c2c(c1)cc(C(=O)O)n2Cc1cccc(N2CCOCC2)n1 [Example 499, (R)-7-(7-chloro-10-(3-(4-chloro-3,5-dimethylphenoxy)propyl)-4-methyl-1-oxo-6-(1,3,5-trimethyl-1H-pyrazol-4-yl)-3,4-dihydropyrazino[1,2-a]indol-2(1H)-yl)-5-methyl-1-((6-morpholinopyridin-2-yl)methyl)-1H-indole-2-carboxylic acid] | 9.68 | 740 nM |
| Cc1ccnc(-n2cnc(-c3ccc4c(c3)c(N3C[C@@H](C)n5c(c(CCCOc6cc(C)c(Cl)c(C)c6)c6ccc(Cl)c(-c7c(C)nn(C)c7C)c65)C3=O)cn4C)n2)n1 [Example 670, (R)-7-Chloro-10-(3-(4-chloro-3,5-dimethylphenoxy)propyl)-4-methyl-2-(1-methyl-5-(1-(4-methylpyrimidin-2-yl)-1H-1,2,4-triazol-3-yl)-1H-indol-3-yl)-6-(1,3,5-trimethyl-1H-pyrazol-4-yl)-3,4-dihydropyrazino[1,2-a]indol-1(2H)-one] | > 9.70 | < 200 nM |
| Cc1cc(OCCCc2c3n(c4c(-c5c(C)nn(C)c5C)c(Cl)ccc24)[C@H](C)CN(c2cc(OC4CCN(C)C4)cc4cc(C(=O)O)n(C)c24)C3=O)cc(C)c1Cl (stereo partly drawn) [Example 521, 7-((R)-7-chloro-10-(3-(4-chloro-3,5-dimethylphenoxy)propyl)-4-methyl-1-oxo-6-(1,3,5-trimethyl-1H-pyrazol-4-yl)-3,4-dihydropyrazino[1,2-a]indol-2(1H)-yl)-1-methyl-5-((1-methylpyrrolidin-3-yl)oxy)-1H-indole-2-carboxylic acid] | > 9.70 | 610 nM |
| COc1cc(N2C[C@@H](C)n3c(c(CCCOc4cc(C)c(Cl)c(C)c4)c4ccc(Cl)c(-c5c(C)nn(C)c5C)c43)C2=O)c2c(c1)c(C(=O)O)cn2Cc1ccccn1 [Example 605, (R)-7-(7-chloro-10-(3-(4-chloro-3,5-dimethylphenoxy)propyl)-4-methyl-1-oxo-6-(1,3,5-trimethyl-1H-pyrazol-4-yl)-3,4-dihydropyrazino[1,2-a]indol-2(1H)-yl)-5-methoxy-1-(pyridin-2-ylmethyl)-1H-indole-3-carboxylic acid] | 9.35 | 490 nM |
| Cc1cc(OCCCc2c3n(c4c(-c5c(C)ncnc5C)c(Cl)ccc24)[C@H](C)CN(c2cn(C)c4cnc(C(=O)O)cc24)C3=O)cc(C)c1Cl [Example 640, (R)-3-(7-chloro-10-(3-(4-chloro-3,5-dimethylphenoxy)propyl)-6-(4,6-dimethylpyrimidin-5-yl)-4-methyl-1-oxo-3,4-dihydropyrazino[1,2-a]indol-2(1H)-yl)-1-methyl-1H-pyrrolo[2,3-c]pyridine-5-carboxylic acid] | > 9.70 | 8100 nM |
| COCCOc1ccc(N2C[C@@H](C)n3c(c(CCCOc4cc(C)c(Cl)c(C)c4)c4ccc(Cl)c(-c5c(C)nn(C)c5C)c43)C2=O)c2c1cc(C(=O)O)n2Cc1cc(C)ccn1 [Example 632, (R)-7-(7-chloro-10-(3-(4-chloro-3,5-dimethylphenoxy)propyl)-4-methyl-1-oxo-6-(1,3,5-trimethyl-1H-pyrazol-4-yl)-3,4-dihydropyrazino[1,2-a]indol-2(1H)-yl)-4-(2-methoxyethoxy)-1-((4-methylpyridin-2-yl)methyl)-1H-indole-2-carboxylic acid] | > 9.70 | 220 nM |
| Cc1cc(N2C[C@@H](C)n3c(c(CCCOc4cc(C)c(Cl)c(C)c4)c4ccc(Cl)c(-c5c(C)nn(C)c5C)c43)C2=O)c2c(c1)cc(C(=O)O)n2Cc1cc(C#N)ccn1 [Example 556, (R)-7-(7-chloro-10-(3-(4-chloro-3,5-dimethylphenoxy)propyl)-4-methyl-1-oxo-6-(1,3,5-trimethyl-1H-pyrazol-4-yl)-3,4-dihydropyrazino[1,2-a]indol-2(1H)-yl)-1-((4-cyanopyridin-2-yl)methyl)-5-methyl-1H-indole-2-carboxylic acid] | > 9.70 | 280 nM |
| Cc1cc(OCCCc2c3n(c4c(-c5c(C)nn(C)c5C)c(Cl)ccc24)[C@H](C)CN(c2cn(CC(=O)N4CCCC4)c4ccc(-c5ncn(C)n5)cc24)C3=O)cc(C)c1Cl [Example 527, (R)-7-Chloro-10-(3-(4-chloro-3,5-dimethylphenoxy)propyl)-4-methyl-2-(5-(1-methyl-1H-1,2,4-triazol-3-yl)-1-(2-oxo-2-(pyrrolidin-1-yl)ethyl)-1H-indol-3-yl)-6-(1,3,5-trimethyl-1H-pyrazol-4-yl)-3,4-dihydropyrazino[1,2-a]indol-1(2H)-one] | 9.44 | 260 nM |
| COCCOc1cc(N2C[C@@H](C)n3c(c(CCCOc4cc(C)c(Cl)c(C)c4)c4ccc(Cl)c(-c5c(C)nn(C)c5C)c43)C2=O)c2c(c1)c(C(=O)O)cn2Cc1cc(C)cc(C)n1 [Example 652, (R)-7-(7-chloro-10-(3-(4-chloro-3,5-dimethylphenoxy)propyl)-4-methyl-1-oxo-6-(1,3,5-trimethyl-1H-pyrazol-4-yl)-3,4-dihydropyrazino[1,2-a]indol-2(1H)-yl)-1-((4,6-dimethylpyridin-2-yl)methyl)-5-(2-methoxyethoxy)-1H-indole-3-carboxylic acid] | 9.55 | 370 nM |
| Cc1cc(N2C[C@@H](C)n3c(c(CCCOc4cc(C)c(Cl)c(C)c4)c4ccc(Cl)c(-c5c(C)nn(C)c5C)c43)C2=O)c2c(c1)cc(C(=O)O)n2Cc1cccc(C#N)n1 [Example 557, (R)-7-(7-chloro-10-(3-(4-chloro-3,5-dimethylphenoxy)propyl)-4-methyl-1-oxo-6-(1,3,5-trimethyl-1H-pyrazol-4-yl)-3,4-dihydropyrazino[1,2-a]indol-2(1H)-yl)-1-((6-cyanopyridin-2-yl)methyl)-5-methyl-1H-indole-2-carboxylic acid] | > 9.70 | 820 nM |
| Cc1cc(OCCCc2c3n(c4c(-c5c(C)ncnc5C)c(Cl)ccc24)[C@H](C)CN(c2cn(C)c4ccc(-c5ncccn5)cc24)C3=O)cc(C)c1Cl [Example 642, (R)-7-Chloro-10-(3-(4-chloro-3,5-dimethylphenoxy)propyl)-6-(4,6-dimethylpyrimidin-5-yl)-4-methyl-2-(1-methyl-5-(pyrimidin-2-yl)-1H-indol-3-yl)-3,4-dihydropyrazino[1,2-a]indol-1(2H)-one] | 8.52 | 790 nM |
| Cc1cc(OCCCc2c3n(c4c(-c5c(C)nn(C)c5C)c(Cl)ccc24)[C@H](C)CN(c2cn(CCN4CCN(C)CC4)c4ccc(-c5ncccn5)cc24)C3=O)cc(C)c1Cl [Example 568, (R)-7-Chloro-10-(3-(4-chloro-3,5-dimethylphenoxy)propyl)-4-methyl-2-(1-(2-(4-methylpiperazin-1-yl)ethyl)-5-(pyrimidin-2-yl)-1H-indol-3-yl)-6-(1,3,5-trimethyl-1H-pyrazol-4-yl)-3,4-dihydropyrazino[1,2-a]indol-1(2H)-one] | 8.74 | 280 nM |
| Cc1cc(OCCCc2c3n(c4c(-c5c(C)cc(OCCN(C)C)cc5C)c(Cl)ccc24)[C@H](C)CN(c2cn(C)c4ccc(C(=O)O)cc24)C3=O)cc(C)c1Cl [Example 509, (R)-3-(7-chloro-10-(3-(4-chloro-3,5-dimethylphenoxy)propyl)-6-(4-(2-(dimethylamino)ethoxy)-2,6-dimethylphenyl)-4-methyl-1-oxo-3,4-dihydropyrazino[1,2-a]indol-2(1H)-yl)-1-methyl-1H-indole-5-carboxylic acid] | 8.80 | 390 nM |
